Measurements: US20240285512A1, “ORAL CARE COMPOSITIONS” (Firmenich SA, priority 2021, published 2024)
Like-named read-outs stand apart in the source and are kept apart here.

Columns and labels:
Assay type in all cases: cell-based
[1] = test system: A. oris, A. naeslundii, S. mitis and S. oralis; assay: Bacteria adhesion assay, defined inocula (MBEC pegs, saliva pellicle, CFU plating); details: for inhibition at 0.1 % / inhibition at 0.01 % / inhibition at 10000 µM: relative CFU with base designated as 100, read-out: Adhesion Δ (difference in relative biofilm abundance between control base and treatment); for Adhesion Δ (difference in relative biofilm abundance between control base and treatment): relative CFU with base designated as 100
Description: (§1) A total of 12 bacterial strains were selected based on scientific literature. The strains were grown in media recommended by strain suppliers. Broth cultures were adjusted to log 7 CFU/mL with growth media containing 20% of glycerol. For C. matruchotii growth medium with glycerol was used to wash off the colonies culture plates, the cell suspension was then homogenized by vortexing with glass beads. The aerobic and anaerobic strains were mixed and aliquoted separately. The inocula were stored at −80° C. until use.
(§2) Saliva and oral inocula preparation. Saliva and oral microflora samples were collected from healthy volunteers by passive drooling using a method described previously. • (a) Bacteria Adhesion assay. Pegs of 96-well MBEC plate (Innovotech, Canada) were submerged in saliva for pellicle formation. Overnight culture of A. oris, A. naeslundii, S. mitis and S. oralis were normalized to OD=0.1 using 0.85% NaCl and mixed in equal proportions. The plates were treated with samples for 2 min and incubated with the culture mixture for 30 min at 37° C. and 5% CO2. The pegs on 96-well plates were then washed 3 times before harvest. • (b) Biofilm formation assay. Saliva-coated 96-well MBEC plates were incubated with inocula anaerobically overnight. The next day, the inoculum was replaced with modified BHI broth (BHI supplemented with 1 g/L mucin, 0.5 mg/L Vitamin K and 10 mg/L hemin). The devices were treated for 2 min twice to mimic the application of dental care products, after which the treatment solution was replaced with fresh modified BHI broth and incubation of the devices was continued. The biofilms were harvested after two days. • (c) Biofilm disruption assay. The inoculation and incubation was done in the same manner as described in the formation assay except that the incubation time was extended to 7 days, after which the mature biofilm was subjected to treatment twice a day as in the formation assay for 3 days before harvest.
(§3) Biofilm harvest. To harvest the attached cells, the peg of the MBEC device was immersed in 200 μL of saline solution per well. The plates were sonicated in an ultrasonic bath to obtain cell suspension. For the adhesion assay, the suspension was serially diluted and plated on Tryptic Soy Agar using Microlab STAR (Hamilton). For the formation and disruption assays, the suspension was used for SYTO 9 staining using LIVE/DEAD® BacLight Bacterial Viability Kits L7012 (Thermo Fisher Scientific) following manufacturer instructions.
(§4) The inventors used the assays described above to screen more ingredients for activity in a model mouth wash (Table 5).
(§5) The compounds and compositions for testing activities in Table 6 were dissolved in DMSO. The rest of the ingredients of mouth rinse in Table 5 were mixed to make a master mix in water and then aliquoted. The DMSO solution was then added to the master mix and homogenized.

[2] = test system: mature biofilm of defined inocula (12 bacterial strains of Table 1); assay: Biofilm disruption assay, defined inocula (7-day mature biofilm, SYTO 9 fluorescence); details: for inhibition at 0.1 %: dosage 0.1%; for inhibition at 0.1 % / inhibition at 0.01 % / inhibition at 10000 µM: read-out: Disruption Δ (difference in relative biofilm abundance between control base and treatment)
Description: as §1, §2, §3, §4, §5

[3] = test system: biofilm of defined inocula (12 bacterial strains of Table 1); assay: Biofilm formation assay, defined inocula (MBEC plates, SYTO 9 fluorescence); details: for inhibition at 0.1 %: dosage 0.1%; for inhibition at 0.1 % / inhibition at 0.01 % / inhibition at 10000 µM: read-out: Formation Δ (difference in relative biofilm abundance between control base and treatment)
Description: as §1, §2, §3, §4, §5

[4] = defined inocula, relative fluorescence intensity with base designated as 100
[5] = dosage 0.01%, defined inocula, relative fluorescence intensity with base designated as 100
[6] = dosage 10 mM in model mouth rinse with DMSO
[7] = dosage 10 mM in model mouth rinse with DMSO, defined inocula, relative fluorescence intensity with base designated as 100

Cc1ccc(C(C)C)c(O)c1 [THYMOL, Thymol]
inhibition at 0.1 % ([1]; dosage 0.1%): 5.7% | inhibition at 0.1 % [2, 4]: 72% | inhibition at 0.1 % [3, 4]: 86.7%

O=CC=Cc1ccccc1 [Cinnamaldehyde]
inhibition at 0.1 % ([1]; dosage 0.1%): -9.1% | inhibition at 0.1 % [2, 4]: 48.2% | inhibition at 0.1 % [3, 4]: 83.3%

CC(C)=CCC/C(C)=C/CO [GERANIOL, Geraniol]
inhibition at 0.01 % ([1]; dosage 0.01%): 32.1% | inhibition at 0.01 % [2, 5]: 61.7% | inhibition at 0.01 % [3, 5]: 84.7%

CCCCCC1C(=O)CCC1CC(=O)OC (centres unmarked) [Methyl (2-pentyl-3-oxocyclopentyl) acetate]
Adhesion Δ (difference in relative biofilm abundance between control base and treatment) ([1]; dosage 0.01%): 37.1 | Disruption Δ (difference in relative biofilm abundance between control base and treatment) [2, 5]: 63.2 | Formation Δ (difference in relative biofilm abundance between control base and treatment) [3, 5]: 86.3

Butanol
Adhesion Δ (difference in relative biofilm abundance between control base and treatment) ([1]; dosage 0.1%): 56.8 | Disruption Δ (difference in relative biofilm abundance between control base and treatment) [2]: 59.5 | Formation Δ (difference in relative biofilm abundance between control base and treatment) [3]: 83.5

CC=Cc1ccc(OC)cc1 [Anethole]
inhibition at 10000 µM [1, 6]: 17.4% | inhibition at 10000 µM [2, 7]: 77.4% | inhibition at 10000 µM [3, 7]: 53.4%

CCCCCCCCCC(=O)O [Decanoic acid]
inhibition at 10000 µM [2, 7]: 89.8% | inhibition at 10000 µM [3, 7]: 93.3%

CC/C=C\CCOC(=O)CCCCC [cis-3-hexenylhexanoate]
Adhesion Δ (difference in relative biofilm abundance between control base and treatment) [1, 6]: 9.1 | Disruption Δ (difference in relative biofilm abundance between control base and treatment) [2, 7]: 75.3 | Formation Δ (difference in relative biofilm abundance between control base and treatment) [3, 7]: 58.1

CC(C)=CCCC(C)CCO (centres unmarked) [Citronellol]
inhibition at 10000 µM [1, 6]: 91.7% | inhibition at 10000 µM [2, 7]: 67% | inhibition at 10000 µM [3, 7]: 58.1%

CC(C)CCO [ISOAMYL ALCOHOL, Isoamyl alcohol]
inhibition at 0.1 % ([1]; dosage 0.1%): 63.7% | inhibition at 0.1 % [2, 4]: 57.4% | inhibition at 0.1 % [3, 4]: 82.3%

CCC=CCCOC(C)=O [3-HEXENYL ACETATE, 3-hexenyl acetate]
inhibition at 0.01 % ([1]; dosage 0.01%): 32.7% | inhibition at 0.01 % [2, 5]: 64.7% | inhibition at 0.01 % [3, 5]: 78.1%

C=C(C)[C@@H]1CCC2=CC(=O)C[C@@H](C)[C@]2(C)C1 [Nootkatone]
inhibition at 10000 µM [1, 6]: 86.4% | inhibition at 10000 µM [2, 7]: 63.1% | inhibition at 10000 µM [3, 7]: 20.3%

CCCCCCCCCCCCCC(=O)O [Myristic Acid, Myristic acid]
inhibition at 10000 µM [1, 6]: 33.3% | inhibition at 10000 µM [2, 7]: 87.9% | inhibition at 10000 µM [3, 7]: 64.9%

CC(=O)/C=C/C1=C(C)CCCC1(C)C [BETA IONONE, (3E)-4-(2,6,6-Trimethylcyclohex-1-en-1-yl)but-3-en-2-one]
inhibition at 0.01 % ([1]; dosage 0.01%): 19.4% | inhibition at 0.01 % [2, 5]: 61.8% | inhibition at 0.01 % [3, 5]: 80.8%

CCCCC1CCC(=O)O1 (centres unmarked) [OCTALACTONE, Gamma octalactone]
Adhesion Δ (difference in relative biofilm abundance between control base and treatment) ([1]; dosage 0.01%): 63.5 | Disruption Δ (difference in relative biofilm abundance between control base and treatment) [2, 5]: 74.1 | Formation Δ (difference in relative biofilm abundance between control base and treatment) [3, 5]: 89.1

CCCCCCCCCCC(=O)O [undecanoic acid, Undecanoic acid]
inhibition at 10000 µM [1, 6]: 98.8% | inhibition at 10000 µM [2, 7]: 89.1% | inhibition at 10000 µM [3, 7]: 87.5%
